# Target: T1, Recombinant human GR (Homo sapiens, UniProt P04150)
# T1 construct: purchased Invitrogen P2816
# T1 sequence (P04150 1-777): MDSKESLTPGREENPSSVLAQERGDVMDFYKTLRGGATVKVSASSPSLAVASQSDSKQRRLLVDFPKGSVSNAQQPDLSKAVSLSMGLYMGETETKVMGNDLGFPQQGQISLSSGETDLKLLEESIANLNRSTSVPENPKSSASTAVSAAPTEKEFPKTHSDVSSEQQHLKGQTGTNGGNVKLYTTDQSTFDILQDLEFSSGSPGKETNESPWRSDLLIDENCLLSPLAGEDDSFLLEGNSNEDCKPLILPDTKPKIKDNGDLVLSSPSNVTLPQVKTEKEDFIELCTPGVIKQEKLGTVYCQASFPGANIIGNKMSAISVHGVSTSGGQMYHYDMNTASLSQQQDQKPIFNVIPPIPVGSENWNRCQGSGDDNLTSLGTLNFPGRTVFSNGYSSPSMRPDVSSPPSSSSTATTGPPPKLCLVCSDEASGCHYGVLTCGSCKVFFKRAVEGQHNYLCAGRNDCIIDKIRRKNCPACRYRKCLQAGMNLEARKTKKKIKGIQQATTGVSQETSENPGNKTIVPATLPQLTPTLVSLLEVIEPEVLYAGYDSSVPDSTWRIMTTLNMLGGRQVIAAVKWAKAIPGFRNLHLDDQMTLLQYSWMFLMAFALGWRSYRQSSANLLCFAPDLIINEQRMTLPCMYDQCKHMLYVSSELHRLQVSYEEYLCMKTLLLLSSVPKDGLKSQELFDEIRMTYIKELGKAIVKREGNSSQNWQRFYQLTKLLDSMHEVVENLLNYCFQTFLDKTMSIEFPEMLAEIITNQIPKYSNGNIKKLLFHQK
# Experiment: GR competitor assay by fluorescence polarization (binding activity to glucocorticoid receptor)
# Conditions: 20 μM test compound solution, 25 μL per well plus 12.5 μL each of 4×GS1 and 4×GR solution; Fluormone GS1 ligand; positive control 2 mM dexamethasone; read-out: GR Binding ratio (%)
# Description: 1. Evaluation Test for Binding Activity to Glucocorticoid Receptor (Hereinafter Referred to as “GR”)
# In order to evaluate a binding activity to GR, a receptor competitor assay was carried out by a fluorescence polarization method. In the assay, a GR competitor assay kit (manufactured by Invitrogen, cat No. P2816) was used, and a procedure was carried out according to the protocol attached to the kit. Hereinafter, the specific method will be described.
# GR screening buffer: A buffer containing 10 mM potassium phosphate (pH 7.4), 20 mM sodium molybdate (Na2MoO4), 0.1 mM ethylene diamine tetraacetic acid (EDTA), 5 mM dithiothreitol (DTT), 0.1 mM stabilizing peptide and 2% dimethylsulfoxide was prepared.
# 4×GS1 solution: Fluormone™ GS1, which is a fluorescent glucocorticoid ligand, was diluted with GR screening buffer, whereby a 4 nM solution was prepared.
# 4×GR solution: Recombinant human GR was diluted with GR screening buffer, whereby a 16 nM solution was prepared.
# After a test compound was dissolved in dimethylsulfoxide, the resulting solution was diluted with GR screening buffer, whereby a 20 μM test compound solution was prepared.
# 1) The test compound solution was added in an amount of 25 μL into each well of a 96-well plate, and then, 4×GS1 solution and 4×GR solution were added in an amount of 12.5 μL into each well, respectively.
# 2) The plate was incubated in a dark place at room temperature for 2 to 4 hours.
# 3) By using a multimode plate reader, Analyst™ HT (manufactured by LJL Biosystems), fluorescence polarization of each well was measured. As the blank, a well containing GR screening buffer in place of the test compound and 4×GS1 solution was used.
# 4) The same procedure as that in the above 1) to 3) was carried out except that GR screening buffer was used in place of the test compound solution, and the obtained result was taken as the negative control.
# 5) The same procedure as that in the above 1) to 3) was carried out except that 2 mM dexamethasone was used in place of the test compound solution, and the obtained result was taken as the positive control.
# A GR binding ratio (%) was calculated from the following equation.
# GR binding ratio (%)=100×[1-(fluorescence polarization of test compound solution-fluorescence polarization of positive control solution)/(fluorescence polarization of negative control solution—fluorescence polarization of positive control solution)]
row,inhibition at 10 µM,Structure (SMILES)
1,100%,"COc1cc(OC(=O)N2CCOCC2)ccc1-c1ccc2c(c1COc1cc(F)ccc1C)N(C)C(=O)C(C)(C)N2 [Compound 18-1, 8-(5-Fluoro-2-methylphenoxymethyl)-7-[2-methoxy-4-(morpholin-4-ylcarbonyloxy)phenyl]-1,3,3-trimethyl-3,4-dihydro-1H-quinoxalin-2-one]"
2,100%,COc1cc(OC(=O)c2cccnc2OC)ccc1-c1ccc2c(c1COc1cc(F)ccc1C)N(C)C(=O)C(C)(C)N2 [Compound 15-22]
3,86%,"COc1cc(N(C)C(C)=O)ccc1-c1ccc2c(c1COc1cc(F)ccc1C)N(C)C(=O)C(C)(C)N2 [Compound 16-3, 7-[4-(N-Acetyl-N-methylamino)-2-methoxyphenyl]-8-(5-fluoro-2-methylphenoxymethyl)-1,3,3-trimethyl-3,4-dihydro-1H-quinoxalin-2-one]"
4,94%,COc1cc(OC(=O)c2ccccc2SC)ccc1-c1ccc2c(c1COC(=O)c1ccc(C)s1)N(C)C(=O)C(C)(C)N2 [Compound 15-24]
5,100%,COc1cc(OC(=O)c2cccc(C(C)=O)c2)ccc1-c1ccc2c(c1COc1cc(F)ccc1C)N(C)C(=O)C(C)(C)N2 [Compound 15-13]
6,100%,"COc1ccccc1NCc1c(-c2ccc(O)cc2OC)ccc2c1N(C)C(=O)C(C)(C)N2 [Compound 21-3, 7-(4-Hydroxy-2-methoxyphenyl)-8-(2-methoxyphenylaminomethyl)-1,3,3-trimethyl-3,4-dihydro-1H-quinoxalin-2-one]"
7,98%,"CCCC(=O)Oc1ccc(-c2ccc3c(c2CNc2ccccc2OC)N(C)C(=O)C(C)(C)N3)c(OC)c1 [Compound 21-5, 7-(4-Butyryloxy-2-methoxyphenyl)-8-(2-methoxyphenylaminomethyl)-1,3,3-trimethyl-3,4-dihydro-1H-quinoxalin-2-one]"
8,100%,"COC(=O)c1cccc(C(=O)Oc2ccc(-c3ccc4c(c3COc3cc(F)ccc3C)N(C)C(=O)C(C)(C)N4)c(OC)c2)c1 [Compound 15-1, 8-(5-Fluoro-2-methylphenoxymethyl)-7-[2-methoxy-4-(3-methoxycarbonylbenzoyloxy)phenyl]-1,3,3-trimethyl-3,4-dihydro-1H-quinoxalin-2-one]"
9,100%,COc1cc(OC(=O)c2cocn2)ccc1-c1ccc2c(c1COc1cc(F)ccc1C)N(C)C(=O)C(C)(C)N2 [Compound 15-11]
10,100%,COc1cc(OC(=O)c2ccc(C)nc2)ccc1-c1ccc2c(c1COc1cc(F)ccc1C)N(C)C(=O)C(C)(C)N2 [Compound 15-9]

# The next lines start with the molecule.
row,Structure (SMILES),inhibition at 10 µM
1,COc1cc(F)ccc1-c1ccc2c(c1COc1cc(F)ccc1C)N(C)C(=O)C(C)(C)N2 [Compound 6-12],100%
2,COc1cc(OC(=O)c2ccccc2C)ccc1-c1ccc2c(c1COC(=O)c1cccc(F)c1)N(C)C(=O)C(C)(C)N2 [Compound 5-24],100%
3,"COc1cc(NC(=O)c2ccncc2)ccc1-c1ccc2c(c1COc1cc(F)ccc1C)N(C)C(=O)C(C)(C)N2 [Compound 14-21, 8-(5-fluoro-2-methylphenoxymethyl)-7-[2-methoxy-4-(pyridin-4-ylcarbonylamino)phenyl]-1,3,3-trimethyl-3,4-dihydro-1H-quinoxalin-2-one]",100%
4,COc1cc(OC(=O)c2ccccc2F)ccc1-c1ccc2c(c1COC(=O)c1ccc(C)s1)N(C)C(=O)C(C)(C)N2 [Compound 14-44],100%
5,COc1ccc(C)cc1NCc1c(-c2ccc(F)cc2OC)ccc2c1N(C)C(=O)C(C)(C)N2 [Compound 4-5],100%
6,COc1cc(N)ccc1-c1ccc2c(c1COc1cc(F)ccc1C)N(C)C(=O)C(C)(C)N2 [Compound 8-2],100%
7,COc1ccc(F)cc1-c1ccc2c(c1COc1ccccc1)N(C)C(=O)C(C)(C)N2 [Compound 5-9],100%
8,COc1cc(F)ccc1-c1ccc2c(c1COC(=O)c1ccc(C)s1)N(C)C(=O)C(C)(C)N2 [Compound 2-9],99%
9,COc1ccc(Cl)cc1-c1ccc2c(c1CNc1ccccc1C(C)C)N(C)C(=O)C(C)(C)N2 [Compound 4-10],100%
10,COc1cc(F)ccc1-c1ccc2c(c1COc1cc(Cl)ccc1C)N(C)C(=O)C(C)(C)N2 [Compound 3-15],100%
11,C=CCN1C(=O)C(C)(C)Nc2ccc(-c3cc(F)ccc3OC)c(COC(=O)c3ccc(C)cc3)c21 [Compound 5-19],100%
12,COc1ccc(C(F)(F)F)cc1-c1ccc2c3c1CN(c1ccccc1OC)CN3C(=O)C(C)(C)N2 [Compound 6-38],100%
13,Cc1ccc(F)cc1OCc1c(-c2ccccc2Cl)ccc2c1N(C)C(=O)C(C)(C)N2 [Compound 6-4],98%
14,COc1ccc(OC(=O)c2ccccc2)cc1-c1ccc2c(c1COc1cc(F)ccc1C)N(C)C(=O)C(C)(C)N2 [Compound 6-32],89%
15,C=CCc1ccccc1OCc1c(-c2ccc(F)cc2OC)ccc2c1N(C)C(=O)C(C)(C)N2 [Compound 3-17],100%
16,"COc1ccc(CO)cc1-c1ccc2c(c1COc1cc(F)ccc1C)N(C)C(=O)C(C)(C)N2 [Compound 9-1, 8-(5-Fluoro-2-methylphenoxymethyl)-7-(5-hydroxymethyl-2-methoxyphenyl)-1,3,3-trimethyl-3,4-dihydro-1H-quinoxalin-2-one]",100%
17,COc1ccc(C(=O)Oc2ccc(-c3ccc4c(c3COc3cc(F)ccc3C)N(C)C(=O)C(C)(C)N4)c(OC)c2)cc1 [Compound 14-30],100%
18,COc1ccc(Cl)cc1-c1ccc2c(c1CNc1cc(F)ccc1C)N(C)C(=O)C(C)(C)N2 [Compound 4-7],100%
19,"COc1ccc([N+](=O)[O-])cc1-c1ccc2c(c1COc1cc(F)ccc1C)N(C)C(=O)C(C)(C)N2 [Compound 6-27, 8-(5-fluoro-2-methylphenoxymethyl)-7-(2-methoxy-5-nitrophenyl)-1,3,3-trimethyl-3,4-dihydro-1H-quinoxalin-2-one]",100%
20,COc1cc(F)ccc1-c1ccc2c(c1COC(=O)c1ccc(Br)s1)N(C)C(=O)C(C)(C)N2 [Compound 2-16],100%
21,"COc1cc(O)ccc1-c1ccc2c(c1COc1cc(F)ccc1C)N(C)C(=O)C(C)(C)N2 [Compound 11, 8-(5-fluoro-2-methylphenoxymethyl)-7-(4-hydroxy-2-methoxyphenyl)-1,3,3-trimethyl-3,4-dihydro-1H-quinoxalin-2-one]",100%
22,"COc1cc(OC(=O)Nc2cccnc2)ccc1-c1ccc2c(c1COc1cc(F)ccc1C)N(C)C(=O)C(C)(C)N2 [Compound 17-5, 8-(5-Fluoro-2-methylphenoxymethyl)-7-[2-methoxy-4-(pyridin-3-ylaminocarbonyloxy)phenyl]-1,3,3-trimethyl-3,4-dihydro-1H-quinoxalin-2-one]",91%
23,C=CC(=O)Oc1ccc(-c2ccc3c(c2COc2cc(F)ccc2C)N(C)C(=O)C(C)(C)N3)c(OC)c1 [Compound 14-33],100%
24,COc1ccc(F)cc1-c1ccc2c(c1COC(=O)c1ccc(C)cc1)NC(=O)C(C)(C)N2 [Compound 2-2],99%
25,COc1cc(NC(=O)c2ccccc2Cl)ccc1-c1ccc2c(c1COc1cc(F)ccc1C)N(C)C(=O)C(C)(C)N2 [Compound 14-22],100%

# — patent US8551991B2, “1,2,3,4-tetrahydroquinoxaline derivative having glucocorticoid receptor binding activity” (Santen Pharmaceutical Co., Ltd., priority 2006, dated 2013)
